Measurements: patent US20220142960A1, “Compositions and Methods for Treating Metabolic Disorders” (VeroScience LLC, priority 2013, published 2022)

What was measured:
Format in all cases: in vivo, rat
[1] = tested on: high fat diet-resistant rats (HF-R); test: Chronic intra-SuMN AMPA treatment of high fat diet-resistant rats
Protocol: (§1) In separate protocols, female Sprague-Dawley high fat diet-resistant rats (HF-R) (16 animals) were fed high fat diets for 4 months or female Sprague-Dawley high fat diet-sensitive rats (HF-S) (16 animals) were fed high fat diets for 3 months. Following initial feeding protocols, AMPA (0.03 mM/0.5 µl) or vehicle was microinjected into SuMN daily for 13 (HF-R animals) or 14 d (HF-S) at the onset of locomotor activity. At the end of AMPA treatment, HF-R animals were sacrificed by decapitation. Trunk blood was collected for glucose and insulin analysis retroperitoneal fat mass were weighed. At the end of AMPA treatment, HF-S animals were subjected to glucose tolerance tests (GTT) and two days after GTT, were sacrificed. Trunk blood was collected for glucose and insulin analysis and retroperitoneal fat mass were weighed. Body weight and food consumption were measured daily throughout both protocols.

[2] = tested on: high fat diet-sensitive rats (HF-S); test: Chronic intra-SuMN AMPA treatment of high fat diet-sensitive rats, GTT
Protocol: as §1

[3] = tested on: dopamine neurons in SuMN; test: Microdialysis of dopamine metabolites at SCN after intra-SuMN AMPA infusion; conditions: compared to vehicle
Protocol: Female Sprague-Dawley rats (12) were housed in a room at constant temperature and humidity with a 14/10 light/dark cycle were fed regular diet ad libitum. Each rat was microinjected with retrograde tracer fluorogold (4%, 20 nl) to SCN and allowed to rest for 10 days. The rats were then perfused with 4% paraformaldehyde and the brains were dissected for immunohistochemistry. Dopamine neurons projecting to SCN were identified with double immunochemistry of fluorogold (FG) and tyrosine hydroxylase (TH). To verify functional connection, dopamine metabolites at SCN were measured by microdialysis in freely moving rats following infusion of AMPA (0.3 mM/0.5 µl) to SuMN.

[4] = tested on: insulin resistant rats on a high fat diet; test: Dopamine infusion into the SCN of high fat fed SHR rats, GTT; conditions: male SHR rats on high fat diet
Protocol: Male SHR rats at approximately 12 weeks of age were fed a high fat diet for one month and were then treated with either dopamine or vehicle for a three minute period at the offset of light (14 hour daily photoperiod) via a cannula directed to the SCN daily for 2 weeks while maintained on the high fat diet. At the end of the treatment period, animals were subjected to a glucose tolerance test (GTT) (3 g/kg of glucose) and plasma samples were taken before and at 30, 60, 90, and 120 minutes after glucose treatment. Plasma samples were analyzed for glucose and insulin levels.

[5] = tested on: insulin resistant high fat fed rats; test: NMDA agonist directed to the SuMN in high fat fed rats, GTT; conditions: female Sprague Dawley HFD-sensitive rats, cannula to SuMN daily for 2 weeks at offset of light, relative to vehicle, FIG. 6
Protocol: Treatment of insulin resistant high fat fed rats with an NMDA agonist directed to the SuMN improved insulin resistance and glucose intolerance. Female Sprague Dawley rats were fed a high fat diet for one month and those animals most sensitive to the diet (those gaining the most weight in the group) were then treated with either an NMDA agonist or vehicle for a three minute period at the offset of light (14 hour daily photoperiod) via a cannula directed to the SuMN daily for 2 weeks while maintained on the high fat diet. At the end of the treatment period, animals were subjected to a glucose tolerance test (GTT) (3 g/kg of glucose) and plasma samples were taken before and at 30, 60, 90, and 120 minutes after glucose treatment. Plasma samples were analyzed for glucose and insulin levels.

[6] = AMPA into SuMN daily for 13 d, versus vehicle, p<0.01
[7] = cannula to SCN daily for 2 weeks at offset of light, relative to vehicle, FIG. 7

Cc1o[nH]c(=O)c1CC(N)C(=O)O (stereo not shown) [AMPA]
body weight ([1]; AMPA 0.03 mM/0.5 µl into SuMN daily for 13 d at onset of locomotor activity, versus vehicle, p<0.05): significantly reduced | retroperitoneal fat ([1]; AMPA into SuMN daily for 13 d, vehicle 13.4 g): 9.02 g | daily food consumption ([1]; AMPA into SuMN daily for 13 d, vehicle 17.7 g, p<0.05): 13.7 g | total abdominal fat ([1]; AMPA into SuMN daily for 13 d, vehicle 19.1 g): 12.9 g | reduction of retroperitoneal fat [1, 6]: 33% | reduction of total abdominal fat [1, 6]: 32% | plasma glucose concentration during the GTT ([2]; AMPA 0.03 mM/0.5 µl into SuMN daily for 14 d, compared to vehicle): significantly reduced | total area under the glucose GTT curve ([2]; AMPA into SuMN daily for 14 d): decreased | basal plasma insulin level ([2]; AMPA into SuMN daily for 14 d, decreased from 2.2, P<0.05): 1.15 ng/mL | basal plasma glucose level ([2]; AMPA into SuMN daily for 14 d, decreased from 114, P<0.05): 106 mg/dL | Insulin resistant index (HOMA-IR) ([2]; AMPA into SuMN daily for 14 d, reduced from 13.0±1.79, p=0.018): 6.3±1.70 | dopamine metabolite HVA at SCN area ([3]; intra-SuMN AMPA infusion 0.3 mM/0.5 µl, freely moving rats, p<0.05, FIG. 1A): significant elevations | dopamine metabolite DOPAC at SCN area ([3]; intra-SuMN AMPA infusion 0.3 mM/0.5 µl, freely moving rats, p<0.05, FIG. 1B): significant elevations | serotonin metabolite 5-HIAA at the SCN ([3]; intra-SuMN AMPA infusion, FIG. 1C): did produce a significant elevation

CN[C@H](CC(=O)O)C(=O)O [NMDA]
insulin resistance [4, 7]: significantly improved | plasma glucose levels during the GTT [4, 7]: significantly reduced | plasma insulin levels during the GTT [4, 7]: significantly reduced | insulin resistance [5]: significantly improved | plasma glucose levels during the GTT [5]: significantly reduced | plasma insulin levels during the GTT [5]: significantly reduced

NCCc1ccc(O)c(O)c1 [dopamine]
insulin resistance [4, 7]: improved | glucose intolerance ([4]; infusion directly into the SCN daily for 2 weeks): improved
